Test results: article PMC10961089, “Epidermal growth factor receptor inhibition potentiates chemotherapeutics‐mediated sensitization of metastatic breast cancer stem cells” (Cancer Reports, 2024)
Where two headings read alike, the source gives them in different places.

Assays:
HEK‐293 = experiment: MTT cytotoxicity assay in control cell line HEK-293; assay type: cell-based, human; conditions: non-tumoral control cell line, read-out: IC50 (μM) in HEK‐293 (mean ± SD)
Experimental: (§1) TNBC cell lines (ER^−, PR^−, HER2^−)—MDA‐MB‐231 (ATCC HTB‐26) and MDA‐MB‐468 (ATCC HTB‐132) were procured from ATCC and cultured in Roswell Park Memorial Institute Media (RPMI‐1640) and Dulbecco's Modified Eagle's Medium (DMEM), respectively, supplemented with 10% FBS and 1% Penicillin–Streptomycin solution. Cells were maintained at 5% CO2 at 37°C in a humid atmosphere.[6], [26] The control cell line, Human Embryonic Kidney—HEK‐293 (ATCC CRL‐3216) was also obtained from ATCC and cultured in DMEM.[5], [25]
(§2) To evaluate the cytotoxicity profile of the potential EGFR inhibitors (compounds) against TNBC cell lines—MDA‐MB‐231, MDA‐MB‐468, and control cell line HEK293, cells were seeded at a cell density of 5 × 10^3 cells/well in complete medium onto 96‐well plates. Here, the non‐tumoral human embryonic kidney (HEK293) epithelial cells have been utilized as a control cell line to compare the IC50 values of the compounds between cancerous and non‐cancerous cell lines with a big therapeutic window. The use of HEK293 cells as compared to other non‐cancerous cell lines are easy to maintain in culture and the results obtained from HEK293 are highly reproducible and consistent.[27] Briefly, the cells were incubated at 37°C for 12 h to attain morphology. After 12 h, cells were serum starved by replacing the complete media with media containing 2% FBS to synchronize the cells. Post‐12 h of synchronization, cells were treated with an increasing concentration (0.1, 1, 10, 100 μM) of all the compounds (1a, 1b, 1c, 1d, 1e, 1f, 1g, 1h, 1i, 1j, 1k). Separately, TNBC cells were treated with increasing concentration (0.01, 0.1, 1 μM) of Doxorubicin (Sigma‐Aldrich, St Louis, MO, USA) in presence of the selected compounds (1c, 1e, 1g, 1h, 1j, and 1k) at 5 μM concentration or combination of selected compounds (1c, 1e, 1g, 1h, 1j, and 1k) at increasing concentration (1, 2.5, 5, 10 μM) in presence of Doxorubicin (0.01 μM) for 48 h. In addition, the CD24^+‐breast cancer cells and CD24^−/CD44^+‐breast CSC populations, being sorted by Magnetic Activated Cell Sorting (MACS) from MDA‐MB‐231 cells as described previously,[6] were also treated with increasing concentrations of Doxorubicin (0.01–1 μM), in the presence or absence of 1e (10–30 μM), or PD153035 (10 μM) (Sigma‐Aldrich, St Louis, MO, USA). MTT assay was performed to evaluate the cytotoxicity of these compounds against the TNBC cell lines, and the sorted populations as described previously.[6] All the experiments were performed thrice and the IC50 values of the compounds and Doxorubicin were calculated using GraphPad Prism software version 9 (San Diego, CA, USA). Similarly, the percent inhibition of the sorted cell populations by chemotherapeutic drug, doxorubicin in the absence/presence of potent compound 1e or standard EGFR inhibitor, PD153035 was evaluated utilizing GraphPad Prism Version 9 (San Diego, CA, USA).

MDA‐MB‐231 [1] = experiment: MTT cytotoxicity assay in MDA-MB-231; assay type: cell-based, human; conditions: for IC50: 48 h, read-out: IC50 (μM) in MDA‐MB‐231 (mean ± SD)
Experimental: as §1, §2

MDA‐MB‐468 [2] = experiment: MTT cytotoxicity assay in MDA-MB-468; assay type: cell-based, human; conditions: for IC50: 48 h, read-out: IC50 (μM) in MDA‐MB‐468 (mean ± SD); for decrease in the IC50 of Doxorubicin in the presence of the compound: MDA-MB-468, versus Doxorubicin alone
Experimental: as §1, §2

MDA‐MB‐468 [3] = experiment: Cell migration (chemotaxis), Boyden-Chamber assay; assay type: cell-based, human; conditions: Doxorubicin 0.01 μM + compound 5 μM (PD153035 10 μM) vs 10% FBS and Doxorubicin alone
Experimental: (§3) TNBC cell lines—MDA‐MB‐231, MDA‐MB‐468, and the sorted CD24^+‐breast cancer cells, and CD24^−/CD44^+‐breast CSC populations from MDA‐MB‐231 [6] were seeded at a density of 1 × 10^6 cells/well to evaluate their migratory potential by Boyden‐Chamber assay. […] At the end of the treatment period, the cells were plated at a density of 5 × 10^3 cells/well in the upper chamber of the Boyden chamber assembly and 10% FBS in the lower chamber was used as a chemoattractant. Separately, the cells in the upper chamber were treated with Doxorubicin (0.01–0.1 μM) alone or with the potential EGFR inhibitors (compounds—1c, 1e, 1g, 1h, 1j, and 1k (5 μM) based on their low IC50 values) or a commercial EGFR inhibitor, PD153035 (10 μM) and incubated for 4 h followed by fixation and staining as described previously.[28], [29]

MDA‐MB‐231 [4] = experiment: Cell migration (chemotaxis), Boyden-Chamber assay; assay type: cell-based, human; conditions: Doxorubicin 0.01 μM + compound 5 μM (PD153035 10 μM) vs 10% FBS and Doxorubicin alone
Experimental: as §3

[5] = tested on: Bax and Cytochrome‐C in MDA‐MB‐231 cells; experiment: Gene expression of apoptotic genes, semi-quantitative RT-PCR; assay type: cell-based, human; conditions: MDA-MB-231, doxorubicin + compound 5 μM, 24 h
Experimental: Briefly, the cells were incubated at 37°C with serum starvation followed by culturing as described above. […] Briefly, the template RNA (1 μg) was utilized for cDNA synthesis using a First‐strand cDNA synthesis kit (Thermo Scientific, USA) according to the manufacturer's protocol. Thermal cycler (Mastercycler® nexus, Eppendorf) was used for the amplification of the expression of apoptotic genes—Bax, Bcl2, Cytochrome‐C, and target gene EGFR with the help of Dream Taq DNA Polymerase PCR Master Mix (Thermo Scientific, USA) along with human gene‐specific forward and reverse primer sequences of the apoptotic genes and EGFR (Table ST1). The expression of the target genes was normalized to the Eukaryotic 18S rRNA.

[6] = tested on: CD24^−/CD44^+‐breast CSCs xenotransplanted tumors; experiment: Preclinical orthotopic xenograft murine tumor model (tumor size, weight, H&E histology); assay type: in vivo, C57BL/6 mice; conditions: doxorubicin high dose 10 mg/kg intratumoral vs untreated breast CSCs transplanted group
Experimental: Animal studies have been carried out with the prior approval of the Institutional Animal Ethics Committee (IICT/IAEC/025/2023). C57BL/6 female mice of age 6–8 weeks (N = 35) were initially immunosuppressed with cyclophosphamide (50 mg/kg of body weight, i.p) on alternate days for 2 weeks. For generating a preclinical orthotopic xenograft tumor model, 2 × 10^6 GFP expressing sorted stable CD24^+‐breast cancer cells and CD24^−/CD44^+‐breast CSCs were orthotopically xeno‐transplanted subcutaneously at the fourth mammary fat pad of immune‐suppressed mice (n = 5/group). Subsequently, intratumoral administration of Doxorubicin at a low dose (2.5 mg/kg of body weight), high dose (10 mg/kg of body weight), and/or combinatorial treatment of the potent EGFR inhibitor, compound 1e (50 mg/kg of body weight) or the commercial EGFR inhibitor, PD153035 (50 mg/kg of body weight) with a low dose of doxorubicin was performed to the palpable tumors of breast CSCs at day‐3 post‐transplantation.
Euthanization of mice was performed on day 14 post‐transplantation and tumor tissues were collected for histological and immunohistochemical analysis. Histological differences in tumor tissues were evaluated using hematoxylin and eosin staining (H&E).[28], [30]

Row | SMILES | IC50 (HEK‐293; compound alone) [µM] | IC50 (MDA‐MB‐231 [1]; compound alone, MTT) [µM] | IC50 (MDA‐MB‐468 [2]; compound alone, MTT) [µM] | decrease in the IC50 of Doxorubicin in the presence of the compound (MDA‐MB‐468 [2]) [fold] | expression of pro‐apoptotic genes Bax and Cytochrome‐C [5] | also measured
1 | c1ccc2c(C(c3c[nH]c4ccccc34)c3c[nH]c4ccccc34)c[nH]c2c1 [1b] | 231 ± 15.9 | 22.1 ± 1.96 | 90.8 ± 7.87 |  |  | 
2 | Oc1ccc(C(c2c[nH]c3ccccc23)c2c[nH]c3ccccc23)cc1 [1c] | 127 ± 16.8 | 30.5 ± 2.93 | 25 ± 2.41 | 10 | marked increase | migratory potential (MDA‐MB‐468 [3]): significant decrease; migratory potential (MDA‐MB‐231 [4]): significant decrease
3 | c1ccc(C(c2c[nH]c3ccccc23)c2c[nH]c3ccccc23)nc1 [1d] | 219 ± 11.6 | 44.4 ± 2.11 | 47.6 ± 5.99 |  |  | 
4 | CN(C)c1ccc(C(c2c[nH]c3ccccc23)c2c[nH]c3ccccc23)cc1 [1f] | ≥ 1000 | 73 ± 1.13 | 130 ± 7.76 |  |  | 
5 | c1ccc2c(C(c3c[nH]c4ccccc34)C(c3c[nH]c4ccccc34)c3c[nH]c4ccccc34)c[nH]c2c1 [1g] | ≥ 1000 | ≥ 1000 | 29.6 ± 6.04 | 10 | marked increase | migratory potential (MDA‐MB‐468 [3]): significant decrease; migratory potential (MDA‐MB‐231 [4]): significant decrease
6 | COc1cc(C(c2c[nH]c3ccccc23)c2c[nH]c3ccccc23)ccc1O [1j] | 327 ± 20.7 | 114 ± 1.25 | 68.4 ± 5.51 | 10 | marked increase | 
7 | c1ccc2c(C(c3ccc(C(c4c[nH]c5ccccc45)c4c[nH]c5ccccc45)cc3)c3c[nH]c4ccccc34)c[nH]c2c1 [1k, 1,4‐bis(di(1H‐indol‐3‐yl)methyl)benzene] |  |  |  | 10 | marked increase | IC50 (HEK‐293; Homo sapiens, HEK293, compound alone): 235 ± 12.5 µM; IC50 (MDA‐MB‐231 [1]; Homo sapiens, MDA-MB-231, 48 h, compound alone, MTT): 14.7 ± 1.36 µM; IC50 (MDA‐MB‐468 [2]; Homo sapiens, MDA-MB-468, compound alone, MTT): 20.4 ± 2.41 µM
8 | COc1cccc2c1C(=O)c1c(O)c3c(c(O)c1C2=O)C[C@@](O)(C(=O)CO)C[C@@H]3O[C@H]1C[C@H](N)[C@H](O)[C@H](C)O1 [Doxorubicin, reference compound] |  |  |  |  |  | IC50 (MDA‐MB‐231 [1]; Homo sapiens, MDA-MB-231, 48 h, IC50 of doxorubicin alone or in presence of compound at 5 μM): 0.1 µM; inhibition at 0.01 µM (MDA‐MB‐231 [1]; Homo sapiens, MDA-MB-231, Doxorubicin 0.01 µM alone, read-out: Percent inhibition (%) in MDA-MB-231 (Mean ± SEM)): 21.1 ± 0.701%; IC50 (MDA‐MB‐231 [1]; IC50 of doxorubicin alone or in presence of compound at 5 μM): 0.11 ± 0.01 µM; tumor size and weight [6]: significantly lower; inhibition at 0.01 µM (MDA‐MB‐468 [2]; Homo sapiens, MDA-MB-468, Doxorubicin 0.01 µM alone, read-out: Percent inhibition (%) in MDA-MB-468 (Mean ± SEM)): 19.1 ± 1.08%; IC50 (MDA‐MB‐468 [2]; Homo sapiens, MDA-MB-468, IC50 of doxorubicin alone or in presence of compound at 5 μM): 0.4 ± 0.008 µM
